Tests used:
Assay type in all cases: cell-based
[1] = test system: B16F10 (malignant melanoma); assay: Antiproliferative activity (CCK-8 cell viability), B16F10; details: Mus musculus, 72 h; for inhibition at 3.3 µM: B16-F10, Compound concentration: 3.3 μM; for inhibition at 3.3 µM / inhibition at 10 µM: read-out: Antiproliferative activity in cancerous cells, B16F10 (inhibition of cell growth); for inhibition at 10 µM: B16-F10, Compound concentration: 10 μM
How it was run: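 Cell growth inhibition was measured in B16F10 malignant melanoma cells with a Cell Counting Kit-8 viability assay. Cells were maintained in DMEM plus 10% fetal bovine serum, seeded at 2,000-5,000 cells/well in 96-well plates, and treated for 72 h at 37° C. Viability was expressed relative to DMSO-treated vehicle control wells.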

[2] = test system: A549 (lung adenocarcinoma); assay: Antiproliferative activity (CCK-8 cell viability), A549; details: Homo sapiens, 72 h; for inhibition at 3.3 µM: Compound concentration: 3.3 μM; for inhibition at 3.3 µM / inhibition at 10 µM: read-out: Antiproliferative activity in cancerous cells, A549 (inhibition of cell growth); for inhibition at 10 µM: Compound concentration: 10 μM; for inhibition at 30 µM: Compound concentration: 30 μM, read-out: Antiproliferative activity in cancerous cells, A549
How it was run: (§1)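 Growth inhibition graded in bands from percent viability against DMSO vehicle, read as CCK-8 absorbance at 450 nm. Compound tested at 3.3, 10 or 30 μM for 72 h, 37 °C; media contained 10% FBS: DMEM for HepG2/SW480, MEM for HeLa, F-12K for A549.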

[3] = test system: A431 (epidermoid carcinoma); assay: Antiproliferative activity (CCK-8 cell viability), A431; details: Homo sapiens, 72 h; for inhibition at 3.3 µM: A-431, Compound concentration: 3.3 μM; for inhibition at 3.3 µM / inhibition at 10 µM: read-out: Antiproliferative activity in cancerous cells, A431 (inhibition of cell growth); for inhibition at 10 µM: A-431, Compound concentration: 10 μM
How it was run: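 This growth inhibition assay used A431 cells maintained in Dulbecco's modified Eagle's medium plus 10% fetal bovine serum. Cells were seeded in 96-well plates, treated with compound for 72 h at 37° C., and then given 10 μL CCK-8 solution. After a further 4 h, absorbance was read at 450 nm.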

HeLa (cervical cancer) = assay: Antiproliferative activity (CCK-8 cell viability), HeLa; details: Homo sapiens, 72 h; for inhibition at 3.3 µM: Compound concentration: 3.3 μM; for inhibition at 3.3 µM / inhibition at 10 µM: read-out: Antiproliferative activity in cancerous cells, HELA (inhibition of cell growth); for inhibition at 10 µM: Compound concentration: 10 μM
How it was run: as §1

HepG2 (liver cancer) = assay: Antiproliferative activity (CCK-8 cell viability), HepG2; details: Homo sapiens, 72 h; for inhibition at 3.3 µM: Compound concentration: 3.3 μM; for inhibition at 3.3 µM / inhibition at 10 µM: read-out: Antiproliferative activity in cancerous cells, HepG2 (inhibition of cell growth); for inhibition at 10 µM: Compound concentration: 10 μM
How it was run: as §1

[4] = test system: MDA-MB-231 (breast cancer); assay: Antiproliferative activity (CCK-8 cell viability), MDA-MB-231; details: Homo sapiens, 72 h; for inhibition at 3.3 µM: Compound concentration: 3.3 μM; for inhibition at 3.3 µM / inhibition at 10 µM: read-out: Antiproliferative activity in cancerous cells, MDA-MB-231 (inhibition of cell growth); for inhibition at 10 µM: Compound concentration: 10 μM
How it was run: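 Growth inhibition of human MDA-MB-231 breast cancer cells was assessed with a Cell Counting Kit-8. Cells cultured in DMEM plus 10% FBS were seeded at 2,000-5,000 cells/well, treated after attachment, and kept 72 h at 37° C. CCK-8 solution (10 μL) was added for 4 h, and absorbance at 450 nm was compared with DMSO-treated controls.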

SW480 (colon cancer) = assay: Antiproliferative activity (CCK-8 cell viability), SW480; details: Homo sapiens, 72 h; for inhibition at 3.3 µM: Compound concentration: 3.3 μM; for inhibition at 3.3 µM / inhibition at 10 µM: read-out: Antiproliferative activity in cancerous cells, SW480 (inhibition of cell growth); for inhibition at 10 µM: Compound concentration: 10 μM
How it was run: as §1

[5] = test system: alpha-smooth muscle actin (α-SMA); assay: Inhibition of TGF-β induced expression of alpha-smooth muscle actin (α-SMA) in CFSC cells (western blot); details: compound at 10 μM, TGF-β (10 ng/mL), 24 hours, band intensity vs TGF-β only
How it was run: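 CFSC hepatic stellate cells in serum-free DMEM treated 24 h at 37 °C with compound at 10 μM plus TGF-β (10 ng/mL). α-SMA measured by Western blot with β-actin, ECL detection, densitometry. Percent inhibition is decrease in band intensity versus TGF-β-only cells.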

Row | SMILES | inhibition at 3.3 µM [1] | inhibition at 10 µM [1] | inhibition at 3.3 µM [2] | inhibition at 10 µM [2] | inhibition at 3.3 µM [3] | inhibition at 10 µM [3] | inhibition at 3.3 µM (HeLa (cervical cancer)) | inhibition at 10 µM (HeLa (cervical cancer)) | inhibition at 3.3 µM (HepG2 (liver cancer)) | inhibition at 10 µM (HepG2 (liver cancer)) | inhibition at 3.3 µM [4] | inhibition at 10 µM [4] | inhibition at 3.3 µM (SW480 (colon cancer)) | inhibition at 10 µM (SW480 (colon cancer)) | inhibition at 10 µM [5] | also measured
1 | CC1=C(CC(=O)O)c2c(F)cccc2/C1=C\c1cccc(Oc2ccccc2)c1 [C21, (Z)-2-(4-Fluoro-2-methyl-1-(3-phenoxybenzylidene)-1H-inden-3-yl)acetic acid] | < 30% | < 30% | 30 to 50% | 30 to 50% | < 30% | ≥ 50% | 30 to 50% | ≥ 50% | < 30% | 30 to 50% | ≥ 50% | ≥ 50% | < 30% | < 30% | < 30% | –
2 | CCCC1=C(CC(=O)O)c2cc(F)ccc2/C1=C\c1cccc(Oc2ccccc2)c1 [C22, (Z)-2-(5-Fluoro-1-(3-phenoxybenzylidene)-2-propyl-1H-inden-3-yl)acetic acid] | 30 to 50% | ≥ 50% | ≥ 50% | ≥ 50% | < 30% | ≥ 50% | < 30% | ≥ 50% | < 30% | ≥ 50% | ≥ 50% | ≥ 50% | < 30% | 30 to 50% | > 80% | –
3 | CC1=C(CC(=O)O)c2ccc(F)c(F)c2/C1=C\c1cccc(Oc2ccccc2)c1 [C23, (Z)-2-(6,7-Difluoro-2-methyl-1-(3-phenoxybenzylidene)-1H-inden-3-yl)acetic acid] | 30 to 50% | ≥ 50% | < 30% | < 30% | < 30% | < 30% | 30 to 50% | ≥ 50% | < 30% | < 30% | ≥ 50% | ≥ 50% | < 30% | < 30% | < 30% | –
4 | C=CC1=C(CC(=O)O)c2ccccc2/C1=C\c1ccc(Oc2ccc(F)cc2)cc1 [C25, (Z)-2-(1-(4-(4-Fluorophenoxy)benzylidene)-2-vinyl-1H-inden-3-yl)acetic acid] | ≥ 50% | ≥ 50% | < 30% | 30 to 50% | < 30% | < 30% | 30 to 50% | 30 to 50% | < 30% | < 30% | ≥ 50% | ≥ 50% | 30 to 50% | 30 to 50% | < 30% | inhibition at 30 µM [2]: 30 to 50%
5 | CC1=C(Cc2noc(=O)[nH]2)c2cc(F)ccc2/C1=C\c1ccc(Oc2ccc(F)cc2)cc1 [C26, (Z)-3-((5-Fluoro-1-(4-(4-fluorophenoxy)benzylidene)-2-methyl-1H-inden-3-yl)-methyl)-1,2,4-oxadiazol-5(4H)-one] | < 30% | ≥ 50% | 30 to 50% | ≥ 50% | < 30% | ≥ 50% | < 30% | ≥ 50% | < 30% | ≥ 50% | ≥ 50% | ≥ 50% | < 30% | ≥ 50% | > 80% | –
6 | COc1ccc2c(c1)/C(=C\c1ccc(Oc3ccc(F)cc3)cc1)C(Cc1ccccc1)=C2CC(=O)O [C27, (Z)-2-(2-Benzyl-1-(4-(4-fluorophenoxy)benzylidene)-6-methoxy-1H-inden-3-yl)-acetic acid] | 30 to 50% | ≥ 50% | ≥ 50% | ≥ 50% | < 30% | ≥ 50% | ≥ 50% | ≥ 50% | ≥ 50% | ≥ 50% | ≥ 50% | ≥ 50% | < 30% | ≥ 50% | > 80% | –
7 | CC1=C(C(C)C(=O)O)c2ccccc2/C1=C\c1ccc(Oc2ccc(F)cc2)cc1 (centres unmarked) [C29, (Z)-2-(1-(4-(4-Fluorophenoxy)benzylidene)-2-methyl-1H-inden-3-yl)propanoic acid] | 30 to 50% | ≥ 50% | < 30% | 30 to 50% | < 30% | ≥ 50% | ≥ 50% | ≥ 50% | < 30% | ≥ 50% | 30 to 50% | ≥ 50% | 30 to 50% | 30 to 50% | 50 to 80% | –
8 | CC1=C(Cc2noc(=O)[nH]2)c2cc(F)ccc2/C1=C\c1cccc(Oc2ccccc2)c1 [C32, (Z)-3-((5-Fluoro-2-methyl-1-(3-phenoxybenzylidene)-1H-inden-3-yl)methyl)-1,2,4-oxadiazol-5(4H)-one] | < 30% | 30 to 50% | < 30% | < 30% | < 30% | < 30% | < 30% | 30 to 50% | < 30% | < 30% | ≥ 50% | ≥ 50% | < 30% | < 30% | < 30% | –
9 | COc1ccc(Oc2ccc(/C=C3/C(C)=C(CC(=O)O)c4cc(F)ccc43)cn2)cc1 [C35, (Z)-2-(5-Fluoro-1-((6-(4-methoxyphenoxy)pyridin-3-yl)methylene)-2-methyl-1H-inden-3-yl)acetic acid] | < 30% | < 30% | ≥ 50% | ≥ 50% | < 30% | < 30% | < 30% | < 30% | < 30% | < 30% | < 30% | < 30% | < 30% | 30 to 50% | < 30% | inhibition at 30 µM ([1]; B16-F10, Compound concentration: 30 μM, read-out: Antiproliferative activity in cancerous cells, B16F10): < 30%; inhibition at 30 µM [2]: 30 to 50%; inhibition at 30 µM ([3]; A-431, Compound concentration: 30 μM, read-out: Antiproliferative activity in cancerous cells, A431): < 30%; inhibition at 30 µM (HeLa (cervical cancer); Compound concentration: 30 μM, read-out: Antiproliferative activity in cancerous cells, HELA): < 30%; inhibition at 30 µM (HepG2 (liver cancer); Compound concentration: 30 μM, read-out: Antiproliferative activity in cancerous cells, HepG2): < 30%; inhibition at 30 µM ([4]; Compound concentration: 30 μM, read-out: Antiproliferative activity in cancerous cells, MDA-MB-231): 30 to 50%; inhibition at 30 µM (SW480 (colon cancer); Compound concentration: 30 μM, read-out: Antiproliferative activity in cancerous cells, SW480): < 30%

— patent US20260184663A1, “INDENE COMPOUNDS, PHARMACEUTICAL COMPOSITIONS THEREOF, AND THEIR THERAPEUTIC APPLICATIONS” (NucMito Pharmaceuticals co. Ltd., priority 2022, published 2026)
